Assay results: the supplement of paper PMC10307832

How the values were obtained:
Experiment in all cases: relative viability (nuclei count vs DMSO), 5 days (fraction); higher = more cells survive
Wnt-C59 + Olaparib = compound: CC1=NC=CC(=C1)C2=CC=C(C=C2)CC(=O)NC3=CC=C(C=C3)C4=CN=CC=C4 [Wnt-C59] + O=C(c1cc(Cc2n[nH]c(=O)c3ccccc23)ccc1F)N1CCN(C(=O)C2CC2)CC1 [Olaparib] (partner 8 µM)
Procedure, shortened: (§1)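 Five library-drug doses in √10 steps were combined with a fixed anchor-drug dose, or a single drug was given alone, by pin tool to lung cancer cell lines in 1536-well plates the day after seeding. Nuclei were stained and counted after 5 days. Relative viability is the nuclei count in treated wells over that in vehicle wells, taken as the median of duplicate plates.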

Wnt-C59 + Trametinib = compound: CC1=NC=CC(=C1)C2=CC=C(C=C2)CC(=O)NC3=CC=C(C=C3)C4=CN=CC=C4 [Wnt-C59] + CC(=O)Nc1cccc(-n2c(=O)n(C3CC3)c(=O)c3c(Nc4ccc(I)cc4F)n(C)c(=O)c(C)c32)c1 [Trametinib] (partner 0.02 µM)
Procedure, shortened: as §1

Wnt-C59 + OSI-027 = compound: CC1=NC=CC(=C1)C2=CC=C(C=C2)CC(=O)NC3=CC=C(C=C3)C4=CN=CC=C4 [Wnt-C59] + COc1cccc2cc(-c3nc([C@H]4CC[C@H](C(=O)O)CC4)n4ncnc(N)c34)[nH]c12 [OSI-027] (partner 0.5 µM)
Procedure, shortened: as §1

Lapatinib + Palbociclib = compound: CS(=O)(=O)CCNCc1ccc(-c2ccc3ncnc(Nc4ccc(OCc5cccc(F)c5)c(Cl)c4)c3c2)o1 [Lapatinib] + CC(=O)c1c(C)c2cnc(Nc3ccc(N4CCNCC4)cn3)nc2n(C2CCCC2)c1=O [Palbociclib] (partner 0.5 µM)
Procedure, shortened: as §1

| Cell Line | relative viability (Wnt-C59 + Olaparib; first compound 0.001 µM) | relative viability (Wnt-C59 + Olaparib; first compound 0.01 µM) | relative viability (Wnt-C59 + Olaparib; first compound 0.03162 µM) | relative viability (Wnt-C59 + Olaparib; first compound 0.1 µM) | relative viability (Wnt-C59 + Trametinib; first compound 0.001 µM) | relative viability (Wnt-C59 + Trametinib; first compound 0.01 µM) | relative viability (Wnt-C59 + Trametinib; first compound 0.03162 µM) | relative viability (Wnt-C59 + Trametinib; first compound 0.1 µM) | relative viability (Wnt-C59 + OSI-027; first compound 0.001 µM) | relative viability (Wnt-C59 + OSI-027; first compound 0.01 µM) | relative viability (Wnt-C59 + OSI-027; first compound 0.03162 µM) | relative viability (Wnt-C59 + OSI-027; first compound 0.1 µM) | relative viability (Lapatinib + Palbociclib; first compound 0.02 µM) | relative viability (Lapatinib + Palbociclib; first compound 0.06325 µM) | relative viability (Lapatinib + Palbociclib; first compound 0.2 µM) | relative viability (Lapatinib + Palbociclib; first compound 0.6325 µM) | relative viability (Lapatinib + Palbociclib; first compound 2 µM) |
| --- | --- | --- | --- | --- | --- | --- | --- | --- | --- | --- | --- | --- | --- | --- | --- | --- | --- |
| NCI-H1650 | 0.78 | 0.817 | 0.802 | 0.684 | 0.642 | 0.716 | 0.684 | 0.774 | 0.756 | 0.569 | 0.645 | 0.647 | 0.315 | 0.314 | 0.379 | 0.3 | 0.299 |
| LCLC-97TM1 | 0.403 | 0.434 | 0.358 | 0.323 | 0.216 | 0.201 | 0.22 | 0.193 | 0.581 | 0.512 | 0.667 | 0.502 |  | 0.135 | 0.248 | 0.19 | 0.233 |
| RERF-LC-KJ | 0.787 | 0.846 | 1.12 | 0.877 | 0.936 | 0.884 | 0.962 | 0.753 | 0.599 | 0.504 | 0.658 | 0.56 | 1.11 | 0.885 | 0.996 | 0.864 | 0.799 |
| HCC-827 | 0.668 | 0.594 | 0.689 | 0.587 | 0.545 | 0.477 | 0.48 | 0.547 | 0.877 | 0.724 | 0.9 | 0.761 | 0.435 | 0.433 | 0.461 | 0.257 | 0.415 |
| SK-LU-1 | 0.444 | 0.476 | 0.4 | 0.434 | 0.561 | 0.506 | 0.533 | 0.422 | 0.406 | 0.283 | 0.39 | 0.364 | 0.36 | 0.394 | 0.455 | 0.44 | 0.392 |
| NCI-H1944 | 0.463 | 0.396 | 0.343 | 0.388 | 0.433 | 0.449 | 0.431 | 0.369 | 0.407 | 0.358 | 0.415 | 0.462 | 0.304 | 0.253 | 0.265 | 0.275 | 0.225 |
| COR-L 105 | 0.708 | 0.727 | 0.684 | 0.656 | 0.444 | 0.433 | 0.448 | 0.488 | 0.916 | 0.696 | 0.635 | 0.632 | 0.418 | 0.387 | 0.352 | 0.407 | 0.338 |
| HARA | 0.826 | 0.784 | 0.866 | 0.856 | 0.785 | 0.691 | 0.933 | 0.879 | 0.478 | 0.337 | 0.64 | 0.518 | 0.194 | 0.195 | 0.202 | 0.233 | 0.224 |
| NCI-H460 | 0.462 | 0.483 | 0.474 | 0.459 | 0.0894 | 0.111 | 0.191 | 0.156 | 0.663 | 0.739 | 0.88 | 0.624 | 0.116 | 0.168 | 0.149 | 0.149 | 0.118 |
| NCI-H358 | 0.623 | 0.609 | 0.576 | 0.801 | 0.129 | 0.119 | 0.143 | 0.1 | 0.838 | 0.769 | 0.908 | 0.767 | 0.16 | 0.124 | 0.13 | 0.132 | 0.104 |
| SW 1573 | 0.449 | 0.445 | 0.551 | 0.39 | 0.515 | 0.551 | 0.582 | 0.515 | 0.684 | 0.659 | 0.63 | 0.639 |  | 0.384 | 0.411 | 0.372 | 0.359 |
| NCI-H2228 | 1.04 | 0.635 | 0.641 | 0.734 | 0.549 | 0.574 | 0.477 | 0.499 | 0.665 | 0.484 | 0.596 | 0.548 | 0.395 | 0.606 | 0.744 | 0.739 | 0.54 |
| HCC-366 | 0.346 | 0.359 | 0.362 | 0.34 | 0.398 | 0.4 | 0.385 | 0.341 | 0.774 | 0.542 | 1.02 | 1.04 |  | 0.334 | 0.339 | 0.356 | 0.323 |
| NCI-H520 | 0.299 | 0.313 | 0.381 | 0.357 | 0.709 | 0.743 | 0.598 | 0.643 | 0.256 | 0.339 | 0.3 | 0.252 | 0.221 | 0.2 | 0.231 | 0.291 | 0.238 |
| HCC-44 | 0.981 | 1.02 | 0.965 | 0.92 | 1.11 | 0.969 | 0.996 | 1.09 | 0.768 | 0.671 | 0.538 | 0.608 | 0.995 | 1.01 | 0.976 | 1.05 | 0.823 |
| NCI-H2023 | 0.498 | 0.517 | 0.555 | 0.411 | 0.608 | 0.579 | 0.679 | 0.543 | 0.475 | 0.316 | 0.461 | 0.376 |  | 0.266 | 0.324 | 0.242 | 0.264 |
